The values below come from patent US20110306606A1, “NOVEL 2,6-SUBSTITUTED-3-NITROPYRIDINE DERIVATIVE, METHOD FOR PREPARING SAME, AND PHARMACEUTICAL COMPOSITION INCLUDING SAME” (priority 2008, published 2011).

Series [1] concerns Osteoblasts (Calvarial cells). Kind of series: Alkaline phosphatase (ALP) activity in osteoblasts (Calvarial cells). It counts as cell-based, mice. The following applies: Mus musculus, 72 h; 1 μM compound, 3 days, Calvarial cell; read-out: ALP activity (1 μM, % of Control) Calvarial cell. A digest of the protocol: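 Primary calvarial osteoblasts or MC3T3-E1 cells in α-MEM with 10% FBS were treated with 1 μM compound, against a 0.1% DMSO vehicle. Cell lysates were incubated with p-nitrophenylphosphate at 37° for 30 minutes and read at 405 nm. ALP activity was expressed as p-nitrophenol/μg protein/min and reported as % change versus vehicle.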

The subject of series [2] is Osteoblasts (Calvarial cells). As to conditions: ICR, mouse, 72 h, 1 μM.
Procedure: For the preparation of osteoblasts (Calvarial cells), the calvaria were aseptically dissected from 1 to 2-day-old neonatal ICR mice and subjected to continuous reaction with a 0.2% collagenase solution to separate osteoblasts. The cell-suspended supernatant was centrifuged to recover osteoblasts which were grown to full confluence in an α-MEM supplemented with 10% FBS and then diluted to a desired cell density for use in the experiment.
Cytotoxicity of the compounds of the present invention was evaluated by carrying out the experiment described below.
The vehicle control group was established to contain 0.2% DMSO. 100 μL/well of the diluted drugs were dispensed into 96-well plates to which osteoblasts (calvarial cells) prepared in Experimental Example 1 were then added at a density of 1.0×10^4 cells/100 μL/well. Here, the final compound concentration in the cell culture was 1 μM, and the vehicle control group contained 0.1% DMSO. The cells were cultured in a 5% CO2 inhibitor at 37° for 72 hours. 25 μL of 3-(4,5-dimethyl-2-thiazolyl)-2,5-diphenyl-2H-tetrazolium bromide (MTT) dissolved in PBS (2 mg/mL) was added to each cell culture 4 hours before the end of culture. After completion of the reaction, the plates were centrifuged, the media were discarded, and 100 μL of formazan was added and dissolved in dimethyl sulfoxide (DMSO). Finally, the absorbance of the developed plates was measured at 540 nm. The cell viability was expressed as % concentration in comparison with the vehicle control group.
A further series has as its system MC3T3-E1 cells. Kind of series: Alkaline phosphatase (ALP) activity in MC3T3-E1 cells. In kind it is cell-based. The following applies: Mus musculus, 72 h; 1 μM compound, 3 days, MC3T3-E1 cell; read-out: ALP activity (1 μM, % of Control) MC3T3-E1 cell. On the procedure: Differentiation and activity of osteoblasts were indirectly evaluated by measuring an ALP activity having a close relationship with osteogenesis.
Osteoblasts (Calvarial cells) prepared in Experimental Example 1 and MC3T3-E1 cells (available from RIKEN Cell Bank, Japan) were collected in α-MEM supplemented with 10% FBS, followed by cell counting. The cells were dispensed into 24-well cultureware at a density of 2×10^4 cells/well. After culturing of the cells for 24 hours, the culture media were discarded and replaced with fresh media in which test compounds were diluted to a concentration of 1 μM (1 mL/well). In addition, the vehicle control group containing 0.1% DMSO was also treated. […] When the experiment was terminated, the supernatant was removed and the cells were washed three times with cold phosphate buffer at 4°. 0.2% Triton X-100 was added to the washed cells which were then subjected to three cycles of freezing at −70° and thawing at room temperature for the complete lysis of cells. The cell extracts were pooled and centrifuged to collect the cell supernatant which was used for the measurement of ALP activity and proteins. The protein concentration was measured using a BCA assay kit (manufactured by Sigma-Aldrich). For the measurement of ALP activity, p-nitrophenylphosphate was added to the cell supernatant which was then incubated at 37° for 30 minutes, and the reaction was terminated with the addition of 50 μL of 0.2N sodium hydroxide. The standard curve was plotted at the absorbance of 405 nm using p-nitrophenol as a standard material and then the absorbance of test materials thus reacted was measured to determine the production amount of p-nitrophenol.
The ALP activity was calculated by dividing the amount of p-nitrophenol produced from each test material by the protein amount and the reaction time. Therefore, the unit of ALP activity was given in terms of p-nitrophenol/μg protein/min. The results are given in Tables 28-1 and 28-2 where the ALP activity unit of each test material was given in terms of % change through the comparison between the individual test materials and the vehicle control group.

The subject of series [3] is formation of osteoclasts in co-culture of bone marrow cells and osteoblasts. Kind of series: Osteoclastogenesis inhibition via co-culture system (TRAP staining). In kind it is cell-based, mice. The following applies: Mus musculus, Osteoclast, 168 h; 1 μM compound, 7 days co-culture, TRAP-positive multinucleated osteoclasts vs vehicle control. A digest of the protocol: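 Bone marrow cells from male ddY mice were co-cultured with osteoblasts for 7 days in α-MEM/10% FBS with 10^−8 M 1α,25-dihydroxyvitamin D3 and dexamethasone. Compound was present at 1 μM final and refreshed every 2–3 days. TRAP-positive cells with 6–7 nuclei were counted, with % inhibition relative to DMSO vehicle (n=4).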

For the compound `O=[N+]([O-])c1ccc(N2CCC(O)CC2)nc1Nc1ccc(N2CCOCC2)cc1` [Compound 112, 2-(4-morpholinophenylamino)-6-(4-hydroxypiperidino)-3-nitropyridine], the results for the activity at 1 µM (in series [1]; in the series on MC3T3-E1 cells) were 122% and 148%, respectively. Further, the “Cell viability (%) Calvarial cell” value in series [2] stood at 103%.

For `CC(C)(C)c1ccc(Nc2nc(NCCCn3ccnc3)ccc2[N+](=O)[O-])cc1` [Compound 39, 2-[4-(t-butyl)phenylamino]-6-[(3-imidazol-1-yl)propylamino]-3-nitropyridine], in series [2], the “Cell viability (%) Calvarial cell” value amounted to 111%. Moreover, the activity at 1 µM with MC3T3-E1 cells amounted to 175%. In series [3], the inhibition at 1 µM was 98%.

For the compound `N#Cc1ccc(Nc2nc(N3CCC(O)CC3)ccc2[N+](=O)[O-])cc1` [Compound 47, 2-(4-cyanophenylamino)-6-(4-hydroxypiperidino)-3-nitropyridine], the activity at 1 µM turned out to be 111% in series [1] and 117% with MC3T3-E1 cells. Further, the “Cell viability (%) Calvarial cell” value in series [2] came out at 88%.

In the case of `O=[N+]([O-])c1ccc(NCc2ccncc2)nc1Nc1ccc(-n2ccnc2)cc1` [Compound 94, 2-[4-(imidazol-1-yl)phenylamino]-6-[(4-pyridyl)methylamino]-3-nitropyridine], the “Cell viability (%) Calvarial cell” value in series [2] is 85%. Besides, the activity at 1 µM with MC3T3-E1 cells worked out at 134%. The inhibition at 1 µM in series [3] was found to be 93%.

As for `O=[N+]([O-])c1ccc(NCCCn2ccnc2)nc1Nc1ccc(-n2ccnc2)cc1` [Compound 95, 2-[4-(imidazol-1-yl)phenylamino]-6-[(3-imidazol-1-yl)propylamino]-3-nitropyridine], the activity at 1 µM in series [1] worked out at 138%; in the series on MC3T3-E1 cells, 185%. For the same compound, the “Cell viability (%) Calvarial cell” value in series [2] was found to be 93%.

As to `CNc1ccc([N+](=O)[O-])c(Nc2ccc(C#N)cc2)n1` [Compound 45, 2-(4-cyanophenylamino)-6-(methylamino)-3-nitropyridine], the results for the activity at 1 µM (in series [1]; in the series on MC3T3-E1 cells) were 133% and 124%, respectively. Besides, the “Cell viability (%) Calvarial cell” value in series [2] came to 89%.

Turning to `CC(=O)c1cccc(Nc2nc(NCc3cccnc3)ccc2[N+](=O)[O-])c1` [Compound 102, 2-(3-acetylphenylamino)-6-[(3-pyridyl)methylamino]-3-nitropyridine], the activity at 1 µM in series [1] turned out to be 122%; in the series with MC3T3-E1 cells, 126%. In series [2], the “Cell viability (%) Calvarial cell” value amounted to 92%.

Regarding `COc1ccc(Nc2nc(-n3ccnc3C(C)C)ccc2[N+](=O)[O-])cc1` [Compound 21, 2-(4-methoxyphenylamino)-6-[(2-isopropyl)imidazol-1-yl]-3-nitropyridine], in series [2], the “Cell viability (%) Calvarial cell” value was found to be 90%. In addition, the activity at 1 µM in the series on MC3T3-E1 cells came out at 124%.

With `COc1ccc(Nc2nc(NCc3ccncc3)ccc2[N+](=O)[O-])cc1` [Compound 22, 2-(4-methoxyphenylamino)-6-[(4-pyridyl)methylamino]-3-nitropyridine], the activity at 1 µM in series [1] was 121%; in the series with MC3T3-E1 cells it was 123%. For the same compound, in series [2], the “Cell viability (%) Calvarial cell” value is 92%.

For `CC(=O)c1cccc(Nc2nc(-n3ccnc3C(C)C)ccc2[N+](=O)[O-])c1` [Compound 101, 2-(3-acetylphenylamino)-6-[(2-isopropyl)imidazol-1-yl]-3-nitropyridine], the “Cell viability (%) Calvarial cell” value in series [2] is 92%. For the same compound, the activity at 1 µM in the series on MC3T3-E1 cells amounted to 123%.

`CC(=O)c1cccc(Nc2nc(NCc3ccncc3)ccc2[N+](=O)[O-])c1` [Compound 103, 2-(3-acetylphenylamino)-6-[(4-pyridyl)methylamino]-3-nitropyridine]: the “Cell viability (%) Calvarial cell” value in series [2] is reported as 93%. Moreover, the activity at 1 µM with MC3T3-E1 cells stood at 151%. The compound further returned an inhibition at 1 µM in series [3] of 74%.

Take `CC(C)c1nccn1-c1ccc([N+](=O)[O-])c(Nc2ccc(C#N)cc2)n1` [Compound 49, 2-(4-cyanophenylamino)-6-[(2-isopropyl)imidazol-1-yl]-3-nitropyridine]: the activity at 1 µM in series [1] was determined as 112%; with MC3T3-E1 cells it was 122%. Further, in series [2], the “Cell viability (%) Calvarial cell” value was 96%.
